Results: patent US20160361298A1, “METHODS AND COMPOSITIONS FOR TREATING CANCER” (Globavir BioSciences, Inc., priority 2015, published 2016)
Like-named read-outs stand apart in the source and are kept apart here.

Legend:
[1] = target: T1, Recombinant TDO (Homo sapiens, UniProt P48775); experiment: TDO Inhibition Assay (recombinant enzyme, absorbance at 321 nm); type: biochemical; conditions: for activity at 1 µM: 1 μM test compound, read-out: TDO Inhibition Assay Screening (Activity, %) 1 μM; for activity at 10 µM: read-out: TDO Inhibition Assay Screening (Activity, %) 10 μM
T1 construct: Recombinant TDO or IDO was diluted to 16 ng/uL and 50 uL loaded into wells of a 96-well plate
Method: Inhibition of IDO by TDO/IDO test inhibitors was assessed in vitro. A substrate mixture was prepared by mixing equal volumes of 80 mM ascorbic acid diluted in 0.405 M Tris, pH 8.0 and a mixture of […] L-tryptophan, 9,000 units/mL catalase and 40 uM methyene blue. Recombinant TDO or IDO was diluted to 16 ng/uL and 50 uL loaded into wells of a 96-well plate. The reaction was started by the addition of 50 uL substrate mixture. The plate was read in kinetic mode at 321 nm for 5 minutes. The rate of increase of absorbance measured in the absence of a TDO/IDO inhibitor is taken as the maximum rate of enzymatic activity.

[2] = target: T2, Recombinant IDO (Homo sapiens, UniProt P14902); experiment: IDO Inhibition Assay (recombinant enzyme, absorbance at 321 nm); type: biochemical; conditions: for activity at 1 µM: 1 μM test compound, read-out: IDO Inhibition Assay Screening (Activity, %) 1 μM; for activity at 10 µM: read-out: IDO Inhibition Assay Screening (Activity, %) 10 μM
T2 construct: Recombinant TDO or IDO was diluted to 16 ng/uL and 50 uL loaded into wells of a 96-well plate
Method: Inhibition of IDO by TDO/IDO test inhibitors was assessed in vitro. […] Recombinant TDO or IDO was diluted to 16 ng/uL and 50 uL loaded into wells of a 96-well plate. The reaction was started by the addition of 50 uL substrate mixture. […] The rate of increase of absorbance measured in the absence of a TDO/IDO inhibitor is taken as the maximum rate of enzymatic activity.

[3] = test system: Pano2 (murine pancreatic); experiment: Cancer cell cytotoxicity, CellTiter-Glo Luminescent Cell Viability Assay; conditions: Mus musculus, PanO2, read-out: IC50 (μM) cancer cell cytotoxicity
Method: (§1) TDO/IDO test compounds were incubated with various cancer cell lines to determine the effect of the test compounds on cancer cell death. The CellTiter-Glo Luminescent Cell Viability Assay was used to determine cell cytotoxicity by determining the number of viable cells in culture based on quantitation of ATP, which signals the presence of metabolically active cells.

[4] = test system: HuT78 (human CTCL cell line); experiment: as above; conditions: HuT78, read-out: IC50 (μM) cancer cell cytotoxicity
Method: as §1

[5] = test system: U87MG (human glioblastoma); experiment: as above; conditions: U-87 MG, read-out: IC50 (μM) cancer cell cytotoxicity
Method: as §1

[6] = test system: HT29 (human colorectal adenocarcinoma); experiment: as above; conditions: HT-29, read-out: IC50 (μM) cancer cell cytotoxicity
Method: as §1

[7] = test system: GL261 (murine glioma); experiment: as above; conditions: Mus musculus, GL261, read-out: IC50 (μM) cancer cell cytotoxicity
Method: as §1

[8] = test system: CT26 (murine colon); experiment: as above; conditions: Mus musculus, CT26, read-out: IC50 (μM) cancer cell cytotoxicity
Method: as §1

[9] = test system: SCC4 (human squamous cell carcinoma); experiment: as above; conditions: SCC-4, read-out: IC50 (μM) cancer cell cytotoxicity
Method: as §1

[10] = 10 μM test compound, remaining enzyme activity
[11] = read-out: TDO Inhibition Assay Dose Resp. (IC50)
[12] = read-out: IDO Inhibition Assay Dose Resp. (IC50)

T1 sequence (P48775 whole entry): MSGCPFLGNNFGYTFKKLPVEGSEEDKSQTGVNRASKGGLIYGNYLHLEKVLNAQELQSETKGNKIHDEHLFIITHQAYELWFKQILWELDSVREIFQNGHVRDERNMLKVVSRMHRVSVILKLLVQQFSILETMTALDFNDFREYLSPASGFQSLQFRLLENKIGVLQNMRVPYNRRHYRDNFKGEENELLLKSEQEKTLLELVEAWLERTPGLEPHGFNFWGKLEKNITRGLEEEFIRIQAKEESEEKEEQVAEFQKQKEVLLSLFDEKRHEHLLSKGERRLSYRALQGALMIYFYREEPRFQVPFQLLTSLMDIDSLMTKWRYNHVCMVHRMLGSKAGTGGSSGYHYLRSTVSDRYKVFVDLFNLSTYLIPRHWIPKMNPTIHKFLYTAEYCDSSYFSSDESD
T2 sequence (P14902 whole entry): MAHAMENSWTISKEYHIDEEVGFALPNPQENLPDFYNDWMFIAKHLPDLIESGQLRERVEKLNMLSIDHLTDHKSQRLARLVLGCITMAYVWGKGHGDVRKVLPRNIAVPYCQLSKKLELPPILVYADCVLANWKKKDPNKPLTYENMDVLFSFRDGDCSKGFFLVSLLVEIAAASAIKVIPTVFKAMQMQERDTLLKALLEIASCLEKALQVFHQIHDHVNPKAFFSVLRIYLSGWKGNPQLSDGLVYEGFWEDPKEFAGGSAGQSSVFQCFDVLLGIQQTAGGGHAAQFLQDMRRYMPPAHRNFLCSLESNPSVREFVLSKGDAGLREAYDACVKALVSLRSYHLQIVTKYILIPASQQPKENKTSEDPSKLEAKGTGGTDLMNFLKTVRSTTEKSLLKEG

| activity at 1 µM ([1]; remaining enzyme activity) | activity at 10 µM [1, 10] | activity at 1 µM ([2]; remaining enzyme activity) | activity at 10 µM [2, 10] | IC50 [1, 11] | IC50 [2, 12] | Structure (SMILES) | IC50 [3] | IC50 [4] | IC50 [5] | IC50 [2] | IC50 [6] | IC50 [7] | IC50 [8] | IC50 [9] | activity at 10 µM [1] | activity at 10 µM [2] | IC50 [1] |
| --- | --- | --- | --- | --- | --- | --- | --- | --- | --- | --- | --- | --- | --- | --- | --- | --- | --- |
| 82% | 62% | 84% | 75% |  |  | O=C(Nc1ccc([N+](=O)[O-])cc1Cl)c1cc(Cl)ccc1O [Niclosamide] |  |  |  |  |  |  |  |  |  |  |  |
| 93% | 82% | 72% | 56% | 47 µM | 17.4 µM | CCC(C)n1ncn(-c2ccc(N3CCN(c4ccc(OCC5COC(Cn6cncn6)(c6ccc(Cl)cc6Cl)O5)cc4)CC3)cc2)c1=O (stereo not shown) [Itraconazole] |  |  |  |  |  |  |  |  |  |  |  |
| 107% | 69% | 90% | 85% |  |  | O=C(O)c1ccc(-n2nc(-c3ccccc3O)nc2-c2ccccc2O)cc1 [Deferasirox] |  |  |  |  |  |  |  |  |  |  |  |
| 83% | 28% | 76% | 47% | 4.16 µM | 9.33 µM | Clc1ccc(C(Cn2ccnc2)OCc2ccsc2Cl)c(Cl)c1 (stereo not shown) [Tioconazole] | 22.2 µM | 12.1 µM | 26.1 µM |  | 18.2 µM | 27 µM | 14 µM | 28.2 µM |  |  |  |
| 89% | 43% | 99% | 88% | 9.33 µM | 63.4 µM | Clc1cccc(C(c2ccc3[nH]cnc3c2)n2ccnc2)c1 (stereo not shown) [Liarozole] |  |  |  |  |  |  |  |  |  |  |  |
|  | 5% |  | 83% | 1.05 µM |  | CC1=NN(c2ccc(C)c(C)c2)C(=O)/C1=N\Nc1cccc(-c2cccc(C(=O)O)c2)c1O [Eltrombopag] |  |  |  |  |  |  |  |  |  |  |  |
| 89% | -34% | 85% | 56% | 2.73 µM |  | Clc1ccc(C(Cn2ccnc2)OCc2ccc(Sc3ccccc3)cc2)c(Cl)c1 (stereo not shown) [Fenticonazole] | 16.1 µM | 9.16 µM | 15.6 µM |  | 13.9 µM | 15.2 µM | 7.6 µM | 78.8 µM |  |  |  |
|  |  |  |  |  |  | NS(=O)(=O)NCCNc1nonc1C(=NO)Nc1ccc(F)c(Br)c1 [INCB024360] | 53.5 µM | 72.5 µM |  |  | 53.7 µM | 48.9 µM | 69.9 µM |  |  |  |  |

| Structure (SMILES) | activity at 1 µM ([1]; remaining enzyme activity) | activity at 10 µM [1, 10] | activity at 1 µM ([2]; remaining enzyme activity) | activity at 10 µM [2, 10] | IC50 [1, 11] | IC50 [2, 12] | IC50 [3] | IC50 [4] | IC50 [5] | IC50 [2] | IC50 [6] | IC50 [7] | IC50 [8] | IC50 [9] | activity at 10 µM [1] | activity at 10 µM [2] | IC50 [1] |
| --- | --- | --- | --- | --- | --- | --- | --- | --- | --- | --- | --- | --- | --- | --- | --- | --- | --- |
| Clc1ccc(C(Cn2ccnc2)OCc2csc3c(Cl)cccc23)c(Cl)c1 (stereo not shown) [Sertaconazole] | 74% | 15% | 63% | 37% | 4.07 µM |  | 16.1 µM | 17.7 µM | 13.9 µM | 8.25 µM | 11.9 µM | 30.1 µM | 10.9 µM |  |  |  |  |
| Clc1ccc(COC(Cn2ccnc2)c2ccc(Cl)cc2Cl)c(Cl)c1 (stereo not shown) [Miconazole] | 74% | 16% | 67% | 27% | 3.7 µM |  |  |  |  | 4.69 µM |  |  |  |  |  |  |  |
| Clc1ccc(COC(Cn2ccnc2)c2ccc(Cl)cc2Cl)cc1 (stereo not shown) [Econazole] | 80% | 20% | 71% | 28% | 5.35 µM |  |  |  |  | 4.91 µM |  |  |  |  |  |  |  |
| C=C(c1ccccc1OCc1cccc(Cl)c1)n1ccnc1 [Cloconazole] |  |  |  |  | 0.532 µM |  | 9.61 µM | 19.4 µM | 26.7 µM |  | 10.7 µM | 20.3 µM | 8.06 µM | 46.2 µM | 5% | 76% |  |
| Clc1ccc(C(Cn2ccnc2)OCc2c(Cl)cccc2Cl)c(Cl)c1 (stereo not shown) [Isoconazole] | 58% | 17% | 76% | 53% |  |  | 12.6 µM | 15.7 µM | 63.9 µM | 14.6 µM | 14.8 µM | 15.6 µM | 14.8 µM | 83.8 µM |  |  | 4.12 µM |
